# Tested on: CHO^R cells
# Assay: Reversal of multidrug resistance: cell growth of vinblastine-resistant CHO^R cells, Coulter counter cell count
# [1] = 72 h, read-out: % Inhibition of Cell Growth Compound Only
Compound,"effect on cell growth (VLB alone at 0.2 µg/ml, 72 hr)",inhibition at 0.1 µg/mL [1] [%],inhibition at 1 µg/mL [1] [%],inhibition at 5 µg/mL [1] [%],inhibition at 10 µg/mL [1] [%],"% Inhibition of Cell Growth Compound + VLB (compound 0.1 µg/ml + vinblastine 0.2 µg/ml, 72 hr) [%]","% Inhibition of Cell Growth Compound + VLB (compound 1 µg/ml + vinblastine 0.2 µg/ml, 72 hr) [%]","% Inhibition of Cell Growth Compound + VLB (compound 5 µg/ml + vinblastine 0.2 µg/ml, 72 hr) [%]","% Inhibition of Cell Growth Compound + VLB (compound 10 µg/ml + vinblastine 0.2 µg/ml, 72 hr) [%]"
"CC[C@]1(O)C[C@@H]2CN(CCc3c([nH]c4ccccc34)[C@@](C(=O)OC)(c3cc4c(cc3OC)N(C)[C@H]3[C@@](O)(C(=O)OC)[C@H](OC(C)=O)[C@]5(CC)C=CCN6CC[C@]43[C@@H]65)C2)C1 [VLB, vinblastine, reference compound]",did not have any effect on cell growth,–,–,–,–,–,–,–,–
CCCc1[nH]c(=O)oc1-c1ccnc2ccccc12 [4-Propyl-5-(4-Quinolinyl)-1-(3H)-Oxazolone],–,0,0,0,14,4,43,93,93
